In patent publication US20090181963A1, “3H-[1,2,3]TRIAZOLO[4,5-D]PYRIMIDINE COMPOUNDS, THEIR USE AS mTOR KINASE AND PI3 KINASE INHIBITORS, AND THEIR [sequence]” (Wyeth, priority 2008, published 2009):
Where a name gives a salt, the structure may show the parent alone. Read-outs that look alike come from different tables or passages of the source.

Columns and labels:
[1] = molecular target: PI3 Kinase γ (Homo sapiens, UniProt P48736); assay: Fluorescence polarization assay for PI3K (PI3 Kinase γ); type: biochemical; conditions: diC8-PI(4,5)P2 substrate, 25 μM ATP, one hour at 25° C.
[2] = molecular target: PI3 Kinase α (Homo sapiens, UniProt P42336); assay: Fluorescence polarization assay for PI3K (PI3 Kinase α); type: biochemical; conditions: diC8-PI(4,5)P2 substrate, 25 μM ATP, one hour at 25° C.
[3] = test system: human tumor xenograft models; conditions: cited from earlier work
[4] = test system: PI3K; conditions: reported, Raynaud et al 2007; read-out: IC50 PI3K (second named); cited from earlier work
[5] = molecular target: mTOR enzymes (Homo sapiens, UniProt P42345); conditions: read-out: IC50 mTOR enzymes; reported in the literature; cited from earlier work

Sequence of PI3 Kinase α (P42336 whole entry): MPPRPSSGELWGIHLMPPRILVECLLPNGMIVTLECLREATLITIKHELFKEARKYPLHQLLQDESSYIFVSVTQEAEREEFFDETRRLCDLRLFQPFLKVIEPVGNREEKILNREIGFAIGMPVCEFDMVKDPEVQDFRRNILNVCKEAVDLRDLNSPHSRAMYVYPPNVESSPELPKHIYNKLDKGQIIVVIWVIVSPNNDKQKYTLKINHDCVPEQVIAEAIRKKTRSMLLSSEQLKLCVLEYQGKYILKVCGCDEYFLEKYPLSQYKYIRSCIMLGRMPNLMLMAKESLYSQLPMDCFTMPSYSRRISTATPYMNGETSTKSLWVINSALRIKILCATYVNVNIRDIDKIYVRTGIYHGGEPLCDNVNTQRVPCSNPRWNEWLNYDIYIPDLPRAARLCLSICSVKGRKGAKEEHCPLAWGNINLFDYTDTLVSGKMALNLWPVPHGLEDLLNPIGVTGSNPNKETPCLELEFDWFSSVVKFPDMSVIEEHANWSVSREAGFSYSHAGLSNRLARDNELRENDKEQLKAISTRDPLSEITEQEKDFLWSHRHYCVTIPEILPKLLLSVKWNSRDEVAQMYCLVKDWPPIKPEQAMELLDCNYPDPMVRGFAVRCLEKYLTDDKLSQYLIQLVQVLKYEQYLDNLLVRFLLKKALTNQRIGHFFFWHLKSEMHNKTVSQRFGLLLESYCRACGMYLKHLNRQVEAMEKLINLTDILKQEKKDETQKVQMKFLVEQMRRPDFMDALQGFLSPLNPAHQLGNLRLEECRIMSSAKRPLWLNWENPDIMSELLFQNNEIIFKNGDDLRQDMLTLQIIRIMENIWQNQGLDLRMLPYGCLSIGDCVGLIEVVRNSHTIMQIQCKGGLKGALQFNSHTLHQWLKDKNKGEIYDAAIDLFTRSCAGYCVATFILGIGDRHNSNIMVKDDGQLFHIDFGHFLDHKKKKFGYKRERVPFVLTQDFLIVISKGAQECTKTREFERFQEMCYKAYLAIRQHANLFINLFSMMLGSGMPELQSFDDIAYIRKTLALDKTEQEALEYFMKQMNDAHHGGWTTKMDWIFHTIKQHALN
Sequence of PI3 Kinase α (P27986 whole entry partner): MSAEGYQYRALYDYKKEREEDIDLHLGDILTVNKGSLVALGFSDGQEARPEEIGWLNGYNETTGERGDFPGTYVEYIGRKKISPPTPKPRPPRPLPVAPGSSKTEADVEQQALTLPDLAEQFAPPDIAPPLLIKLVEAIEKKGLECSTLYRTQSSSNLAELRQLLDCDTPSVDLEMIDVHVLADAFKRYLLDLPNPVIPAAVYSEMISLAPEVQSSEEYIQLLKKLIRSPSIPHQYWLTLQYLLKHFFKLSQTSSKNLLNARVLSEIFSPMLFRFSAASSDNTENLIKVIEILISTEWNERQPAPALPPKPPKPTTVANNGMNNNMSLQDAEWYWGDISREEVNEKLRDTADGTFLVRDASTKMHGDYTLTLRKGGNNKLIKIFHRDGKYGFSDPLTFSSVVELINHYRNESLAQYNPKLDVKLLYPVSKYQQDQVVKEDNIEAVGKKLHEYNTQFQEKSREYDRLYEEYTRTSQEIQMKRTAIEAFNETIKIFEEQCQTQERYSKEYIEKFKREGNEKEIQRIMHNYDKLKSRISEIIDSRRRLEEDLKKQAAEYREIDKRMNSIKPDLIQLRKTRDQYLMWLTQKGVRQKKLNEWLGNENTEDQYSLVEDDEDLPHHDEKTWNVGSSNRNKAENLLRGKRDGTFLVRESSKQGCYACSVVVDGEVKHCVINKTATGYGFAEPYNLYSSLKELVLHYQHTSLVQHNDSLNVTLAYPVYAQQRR
Sequence of PI3 Kinase γ (P48736 whole entry): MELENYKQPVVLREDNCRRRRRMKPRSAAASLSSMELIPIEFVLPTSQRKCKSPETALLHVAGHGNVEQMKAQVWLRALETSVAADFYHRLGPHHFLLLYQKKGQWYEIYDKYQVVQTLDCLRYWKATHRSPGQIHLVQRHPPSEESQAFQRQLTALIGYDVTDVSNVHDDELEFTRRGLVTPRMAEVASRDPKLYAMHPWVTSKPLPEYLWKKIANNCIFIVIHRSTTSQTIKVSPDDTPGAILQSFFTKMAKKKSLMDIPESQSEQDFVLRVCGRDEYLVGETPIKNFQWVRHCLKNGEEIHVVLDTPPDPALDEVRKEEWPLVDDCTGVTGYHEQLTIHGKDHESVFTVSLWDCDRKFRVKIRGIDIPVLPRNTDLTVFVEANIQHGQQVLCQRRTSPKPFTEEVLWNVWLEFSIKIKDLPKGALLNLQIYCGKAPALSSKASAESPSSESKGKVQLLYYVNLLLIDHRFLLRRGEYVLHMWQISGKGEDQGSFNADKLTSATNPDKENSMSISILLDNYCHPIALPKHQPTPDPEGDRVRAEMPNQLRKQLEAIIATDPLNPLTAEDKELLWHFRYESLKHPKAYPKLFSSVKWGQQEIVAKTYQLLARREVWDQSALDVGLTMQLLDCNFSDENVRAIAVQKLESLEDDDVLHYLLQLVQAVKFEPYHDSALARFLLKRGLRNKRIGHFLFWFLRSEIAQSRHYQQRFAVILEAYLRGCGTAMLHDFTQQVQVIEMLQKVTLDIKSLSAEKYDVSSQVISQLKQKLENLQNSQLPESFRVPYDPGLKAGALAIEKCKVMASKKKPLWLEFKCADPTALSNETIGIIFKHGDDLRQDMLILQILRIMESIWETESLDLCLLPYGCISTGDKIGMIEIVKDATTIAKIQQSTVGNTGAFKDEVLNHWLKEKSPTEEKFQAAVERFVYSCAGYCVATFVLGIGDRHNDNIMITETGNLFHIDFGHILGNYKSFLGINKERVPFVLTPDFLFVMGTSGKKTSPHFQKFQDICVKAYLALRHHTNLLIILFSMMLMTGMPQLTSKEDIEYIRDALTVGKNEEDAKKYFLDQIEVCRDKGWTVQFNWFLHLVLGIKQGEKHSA

IC50 [1] | IC50 [2] | SMILES | also measured
25.5 nM | 4.5 nM | Cn1nnc2c(N3CCOCC3)nc(-c3ccc(NC(=O)Nc4ccsc4)cc3)nc21 [Example 201, 1-[4-(3-methyl-7-morpholin-4-yl-3H-[1,2,3]triazolo[4,5-d]pyrimidin-5-yl)phenyl]-3-(3-thienyl)urea] | melting point: 272 °C
30 nM | 6.5 nM | O=C(Nc1ccc(-c2nc(N3CCOCC3)c3nnn(CC(F)(F)F)c3n2)cc1)Nc1cccs1 [Example 141, 1-{4-[7-morpholin-4-yl-3-(2,2,2-trifluoroethyl)-3H-[1,2,3]triazolo[4,5-d]pyrimidin-5-yl]phenyl}-3-(2-thienyl)urea] | 
2420 nM | 1150 nM | CCN(CC)C(=O)c1ccc(Cn2nnc3c(N4CCOCC4)nc(-c4cccc(O)c4)nc32)cc1 [Example 220, N,N-diethyl-4-{[5-(3-hydroxyphenyl)-7-morpholin-4-yl-3H-[1,2,3]triazolo[4,5-d]pyrimidin-3-yl]methyl}benzamide] | 
1670 nM | 447 nM | CC(C)(C)OC(=O)NC1CCN(C(=O)c2ccc(Cn3nnc4c(N5CCOCC5)nc(-c5cccc(O)c5)nc43)cc2)CC1 [Example 209, tert-butyl [1-(4-{[5-(3-hydroxyphenyl)-7-morpholin-4-yl-3H-[1,2,3]triazolo[4,5-d]pyrimidin-3-yl]methyl}benzoyl)piperidin-4-yl]carbamate] | 
25.5 nM | 2 nM | O=C(Nc1ccncc1)Nc1ccc(-c2nc(N3CCOCC3)c3nnn(CC(F)(F)F)c3n2)cc1 [Example 134, 1-{4-[7-morpholin-4-yl-3-(2,2,2-trifluoroethyl)-3H-[1,2,3]triazolo[4,5-d]pyrimidin-5-yl]phenyl}-3-pyridin-4-ylurea] | 
1840 nM | 260 nM | CCNC(=O)c1ccc(Cn2nnc3c(N4CCOCC4)nc(-c4cccc(O)c4)nc32)cc1 [Example 219, N-ethyl-4-{[5-(3-hydroxyphenyl)-7-morpholin-4-yl-3H-[1,2,3]triazolo[4,5-d]pyrimidin-3-yl]methyl}benzamide] | 
260 nM | 56.5 nM | CN(C)CCNC(=O)c1cccc(-n2nnc3c(N4CCOCC4)nc(-c4cccc(O)c4)nc32)c1 [Example 122, N-[2-(dimethylamino)ethyl]-3-[5-(3-hydroxyphenyl)-7-morpholin-4-yl-3H-[1,2,3]triazolo[4,5-d]pyrimidin-3-yl]benzamide] | 
782 nM | 692 nM | CC(=O)NCCNC(=O)c1ccc(Cn2nnc3c(N4CCOCC4)nc(-c4cccc(O)c4)nc32)cc1 [Example 210, N-(2-acetamidoethyl)-4-{[5-(3-hydroxyphenyl)-7-morpholin-4-yl-3H-[1,2,3]triazolo[4,5-d]pyrimidin-3-yl]methyl}benzamide] | 
551 nM | 36 nM | CNC(=O)c1cccc(-n2nnc3c(N4CCOCC4)nc(-c4cccc(O)c4)nc32)c1 [Example 121, 3-[5-(3-hydroxyphenyl)-7-morpholin-4-yl-3H-[1,2,3]triazolo[4,5-d]pyrimidin-3-yl]-N-methylbenzamide] | 
2590 nM | 460 nM | NC(=O)Cn1nnc2c(N3CCOCC3)nc(-c3cccc(CO)c3)nc21 [Example 237, 2-{5-[3-(hydroxymethyl)phenyl]-7-morpholin-4-yl-3H-[1,2,3]triazolo[4,5-d]pyrimidin-3-yl}acetamide] | 
286 nM | 80 nM | CN(C)CCNC(=O)Nc1ccc(-c2nc(N3CCOCC3)c3nnn(C4CCN(Cc5ccc[nH]5)CC4)c3n2)cc1 [Example 161, 1-(4-(3-(1-((1H-pyrrol-2-yl)methyl)piperidin-4-yl)-7-morpholino-3H-[1,2,3]triazolo[4,5-d]pyrimidin-5-yl)phenyl)-3-(2-(dimethylamino)ethyl)urea] | 
9590 nM | 765 nM | COC(=O)c1ccc(Cn2nnc3c(N4CCOCC4)nc(-c4cccc(CO)c4)nc32)cc1 [Example 243, methyl 4-({5-[3-(hydroxymethyl)phenyl]-7-morpholin-4-yl-3H-[1,2,3]triazolo[4,5-d]pyrimidin-3-yl}methyl)benzoate] | 
5210 nM | 689 nM | Oc1cccc(-c2nc(N3CCOCC3)c3nnn(CCN4CCCCC4)c3n2)c1 [Example 195, 3-[7-Morpholin-4-yl-3-(2-piperidin-1-ylethyl)-3H-[1,2,3]triazolo[4,5-d]pyrimidin-5-yl]phenol] | 
748 nM | 296 nM | CN(C)CCNC(=O)Nc1ccc(-c2nc(N3CCOCC3)c3nnn(C4CCN(C(=O)OC(C)(C)C)CC4)c3n2)cc1 [Example 151, tert-butyl 4-(5-(4-(3-(2-(dimethylamino)ethyl)ureido)phenyl)-7-morpholino-3H-[1,2,3]triazolo[4,5-d]pyrimidin-3-yl)piperidine-1-carboxylate] | 

The next lines start with the compound.

SMILES | IC50 [1] | IC50 [2] | also measured
O=C(Nc1ccncc1)Nc1ccc(-c2nc(N3CCOCC3)c3nnn(C4CCOCC4)c3n2)cc1 (as salt: HCl) [Example 198, 1-{4-[7-morpholin-4-yl-3-(tetrahydro-2H-pyran-4-yl)-3H-[1,2,3]triazolo[4,5-d]pyrimidin-5-yl]phenyl}-3-pyridin-4-ylurea] |  |  | melting point: 332 °C
CO[C@H]1C[C@@H]2CC[C@@H](C)[C@@](O)(O2)C(=O)C(=O)N2CCCC[C@H]2C(=O)O[C@H]([C@H](C)C[C@@H]2CC[C@@H](OC(=O)C(C)(CO)CO)[C@H](OC)C2)CC(=O)[C@H](C)/C=C(\C)[C@@H](O)[C@@H](OC)C(=O)[C@H](C)C[C@H](C)/C=C/C=C/C=C/1C [Torisel] |  |  | activity in xenograft mouse model ([3]; NOS/SCID xenograft mouse model of acute lymphoblastic leukemia): active
Oc1cccc(-c2nc(N3CCOCC3)c3oc4ncccc4c3n2)c1 [PI103, 3-(4-(4-morpholinyl)pyrido[3′,2′:4,5]furo[3,2-d]pyrimidin-2-yl)phenol] |  |  | IC50 [4]: […]; activity in human tumor xenograft models ([3]; I.P. dosing in mice, U87MG, PC3, MDA-MB-468, MDA-MB-435, HCT 116, SKOV3, IGROV-1): demonstrated activity
Cn1c(=O)n(-c2ccc(C(C)(C)C#N)cc2)c2c3cc(-c4cnc5ccccc5c4)ccc3ncc21 [NVP-BEZ-235, 2-methyl-2-(4-(3-methyl-2-oxo-8-(quinolin-3-yl)-2,3-dihydro-1H-imidazo[4,5-c]quinolin-1-yl)phenyl)propanenitrile] |  |  | activity in human tumor xenograft models ([3]; prostrate (PC-3) and glioblastoma (U-87)): demonstrated activity
FC(F)c1nc2ccccc2n1-c1nc(N2CCOCC2)nc(N2CCOCC2)n1 [ZSTK474, 2-(2-difluoromethylbenzoimidazol-1-yl)-4,6-dimorpholino-1,3,5-triazine] |  |  | IC50 [5]: > 10 µM; tumor growth in mouse human xenograft cancer models ([3]; chronic oral administration, 400 mg/kg, A549, PC-3, WiDr): completely inhibited growth
CCn1nnc2c(N3CCOC[C@@H]3C)nc(-c3ccc(NC(=O)Nc4ccc(CO)cc4)cc3)nc21 [Example 70, (S)-1-(4-(3-ethyl-7-(3-methylmorpholino)-3H-[1,2,3]triazolo[4,5-d]pyrimidin-5-yl)phenyl)-3-(4-(hydroxymethyl)phenyl)urea] | 102 nM | 5.5 nM | 
CCn1nnc2c(N3CCOCC3)nc(-c3ccc(NC(=O)Nc4nccs4)cc3)nc21 [Example 37, 1-[4-(3-ethyl-7-morpholin-4-yl-3H-[1,2,3]triazolo[4,5-d]pyrimidin-5-yl)phenyl]-3-(1,3-thiazol-2-yl)urea] | 156 nM | 73.5 nM | 
O=C(Nc1ccncc1)Nc1ccc(-c2nc(N3CCOCC3)c3nnn(C4CC4)c3n2)cc1 [Example 78, 1-(4-(3-cyclopropyl-7-morpholino-3H-[1,2,3]triazolo[4,5-d]pyrimidin-5-yl)phenyl)-3-(pyridin-4-yl)urea] | 13.5 nM | 6 nM | 
CC(C)(C)C(=O)Nc1ncccc1CN1CCC(n2nnc3c(N4CCOCC4)nc(-c4cncc(O)c4)nc32)CC1 [Example 25, N-[3-({4-[5-(5-hydroxypyridin-3-yl)-7-morpholin-4-yl-3H-[1,2,3]triazolo[4,5-d]pyrimidin-3-yl]piperidin-1-yl}methyl)pyridin-2-yl]-2,2-dimethylpropanamide] | 407 nM | 143 nM | 
Oc1cccc(-c2nc(N3CCOCC3)c3nnn(CCN4CCN(Cc5ccco5)CC4)c3n2)c1 [Example 113, 3-(3-{2-[4-(2-furylmethyl)piperazin-1-yl]ethyl}-7-morpholin-4-yl-3H-[1,2,3]triazolo[4,5-d]pyrimidin-5-yl)phenol] | 3350 nM | 726 nM | 
CCn1nnc2c(N3CCOCC3)nc(-c3ccc(NC(=O)Nc4ccc(C(=O)NCCCN5CCN(C)CC5)cc4)cc3)nc21 [Example 55, 4-({[4-(3-ethyl-7-morpholin-4-yl-3H-[1,2,3]triazolo[4,5-d]pyrimidin-5-yl)phenyl]carbamoyl}amino)-N-[3-(4-methylpiperazin-1-yl)propyl]benzamide] | 16.5 nM | 1.5 nM | 
CCC(=O)N1CCN(CCn2nnc3c(N4CCOCC4)nc(-c4cccc(O)c4)nc32)CC1 [Example 100, 3-{7-morpholin-4-yl-3-[2-(4-propionylpiperazin-1-yl)ethyl]-3H-[1,2,3]triazolo[4,5-d]pyrimidin-5-yl}phenol] | 3140 nM | 1660 nM | 
CCn1nnc2c(N3CCOCC3)nc(-c3ccc(NC(=O)Nc4ccc(C(=O)NCCN5CCCCC5)cc4)cc3)nc21 [Example 56, 4-({[4-(3-ethyl-7-morpholin-4-yl-3H-[1,2,3]triazolo[4,5-d]pyrimidin-5-yl)phenyl]carbamoyl}amino)-N-(2-piperidin-1-ylethyl)benzamide] | 11 nM | 1.7 nM | 
CCn1nnc2c(N3CCOC[C@@H]3C)nc(-c3ccc(NC(=O)Nc4cccnc4)cc3)nc21 [Example 72, (S)-1-(4-(3-ethyl-7-(3-methylmorpholino)-3H-[1,2,3]triazolo[4,5-d]pyrimidin-5-yl)phenyl)-3-(pyridin-3-yl)urea] | 88.5 nM | 8 nM | 
